The test system of assay [1] is Canis familiaris. The assay can be described thus: Tested for Maximal behavioral effect(overt behavior) in dogs, activity is expressed as av score at a dose of 0.2 mg/kg. Type of assay: functional, Canis lupus familiaris.
The test system of assay [2] is Canis familiaris. The assay is described as follows: Cardiovascular effect for percentage change in heart rate in anesthetized dogs after 1 mg/kg iv dose. Type of assay: functional, Canis lupus familiaris.
For assay [3], the system named is Canis familiaris. The assay is described as follows: Cardiovascular effect for percentage change in blood pressure in anesthetized dogs after 1 mg/kg iv dose. Type of assay: functional, Canis lupus familiaris.
Assay [4] has as its system Canis familiaris. The assay can be described thus: Tested for Maximal behavioral effect(overt behavior) in dogs, activity is expressed as av score at a dose of 0.05 mg/kg. Type of assay: functional, Canis lupus familiaris.
Assay [5] deals with Canis familiaris. The assay is described as follows: Tested for Maximal behavioral effect(overt behavior) in dogs, activity is expressed as av score at a dose of 0.1 mg/kg. Type of assay: functional, Canis lupus familiaris.
The test system of assay [6] is Mus musculus. The assay is described as follows: Tested for the ability to alter the spontaneous activity in mice at 0.1 mg/kg. Type of assay: functional.
The test system of assay [7] is Mus musculus. The assay is described as follows: Tested for the ability to alter the spontaneous activity in mice at 0.3 mg/kg. Type of assay: functional.
The subject of assay [8] is Mus musculus. The assay is described as follows: Tested for the ability to alter the spontaneous activity in mice at 10 mg/kg. Type of assay: functional.
For assay [9], the system named is Mus musculus. The assay can be described thus: Tested for the ability to alter the spontaneous activity in mice at 1 mg/kg. Type of assay: functional.
The test system of assay [10] is Mus musculus. The assay can be described thus: Tested for the ability to alter the spontaneous activity in mice at 3 mg/kg. Type of assay: functional.
In assay [11] the test system is Mus musculus. The assay is described as follows: Tested for the ability to change in rectal temperature in mice at 0.3 mg/kg. Type of assay: functional.
Assay [12] deals with Mus musculus. The assay can be described thus: Tested for the ability to change in rectal temperature in mice at 1 mg/kg. Type of assay: functional.
Assay [13] relates to Mus musculus. The assay can be described thus: Tested for the ability to change in rectal temperature in mice at 10 mg/kg. Type of assay: functional.
Assay [14] relates to Mus musculus. The assay is described as follows: Tested for the ability to change in rectal temperature in mice at 3 mg/kg. Type of assay: functional.
Assay [15] relates to Mus musculus. The assay is described as follows: Tested for the ability to change in rectal temperature in mice at 0.1 mg/kg. Type of assay: functional.
The subject of assay [16] is Canis familiaris. The assay can be described thus: Tested for Maximal behavioral effect(overt behavior) in dogs, activity is expressed as av score at a dose of 0.5 mg/kg. Type of assay: functional, Canis lupus familiaris.
The subject of assay [17] is Mus musculus. The assay can be described thus: Tested for the ability to alter the spontaneous activity in mice at 30 mg/kg. Type of assay: functional.
Assay [18] concerns Mus musculus. The assay is described as follows: Tested for the ability to alter the spontaneous activity in mice at 6 mg/kg. Type of assay: functional.
In assay [19] the test system is Mus musculus. The assay is described as follows: Tested for the ability to change in rectal temperature in mice a 3 mg/kg. Type of assay: functional.
Assay [20] deals with Mus musculus. The assay can be described thus: Tested for the ability to change in rectal temperature in mice at 30 mg/kg. Type of assay: functional.
For assay [21], the system named is Mus musculus. The assay can be described thus: Tested for the ability to change in rectal temperature in mice at 6 mg/kg. Type of assay: functional.
For assay [22], the system named is Canis familiaris. The assay is described as follows: Tested for Maximal behavioral effect(overt behavior) in dogs, activity is expressed as av score at a dose of 0.4 mg/kg. Type of assay: functional, Canis lupus familiaris.
Assay [23] concerns Mus musculus. The assay is described as follows: Tested for the ability to alter the spontaneous activity in mice at 10.0 mg/kg. Type of assay: functional.
Assay [24] concerns Mus musculus. The assay can be described thus: Tested for the ability to alter the spontaneous activity in mice at 2.5 mg/kg. Type of assay: functional.
The test system of assay [25] is Mus musculus. The assay is described as follows: Tested for the ability to alter the spontaneous activity in mice at 5.0 mg/kg. Type of assay: functional.
For assay [26], the system named is Mus musculus. The assay is described as follows: Tested for the ability to alter the spontaneous activity in mice at 7.5 mg/kg. Type of assay: functional.
Assay [27] has as its system Mus musculus. The assay can be described thus: Tested for the ability to change in rectal temperature in mice at 10.0 mg/kg. Type of assay: functional.
Assay [28] has as its system Mus musculus. The assay is described as follows: Tested for the ability to change in rectal temperature in mice at 2.5 mg/kg. Type of assay: functional.
For assay [29], the system named is Mus musculus. The assay can be described thus: Tested for the ability to change in rectal temperature in mice at 5.0 mg/kg. Type of assay: functional.
Assay [30] relates to Mus musculus. The assay can be described thus: Tested for the ability to change in rectal temperature in mice at 7.5 mg/kg. Type of assay: functional.

Each structure is given as a SMILES string.

Turning to `CCC(O)CCc1cc(O)c2c(c1)OC(C)(C)[C@@H]1CCC(C)=CC21` (stereo partly drawn), the Average score with Canis familiaris [1] is 4.5; in the assay on Canis familiaris [3], -45%; with Canis familiaris [4], 1; in the assay on Canis familiaris [5], 2. For the same compound, the Change in the assay on Canis familiaris [2] was -12%. The Activity in the assay with Mus musculus [6] is listed as 108; in the assay on Mus musculus [7], 86; with Mus musculus [8] it was 7; with Mus musculus [9] it was 27; in the assay with Mus musculus [10], 13. Besides, the Change in temparature was -1.3 °C with Mus musculus [11]; -2.8 °C with Mus musculus [12]; -7.6 °C in the assay with Mus musculus [13]; -4.1 °C in the assay with Mus musculus [14]; -0.4 °C in the assay with Mus musculus [15].
For the compound `CCC(O)CCc1cc(O)c2c(c1)OC(C)(C)[C@@H]1CCC(CO)=CC21` (stereo partly drawn), the Average score in the assay with Canis familiaris [1] stood at 1; in the assay with Canis familiaris [16], 3. In addition, the Activity in the assay with Mus musculus [8] was found to be 33; in the assay with Mus musculus [10], 81; in the assay on Mus musculus [17] it was 26; with Mus musculus [18], 59. Also, the Change in temparature is -0.4 °C in the assay on Mus musculus [19], -3 °C with Mus musculus [13], -4.3 °C in the assay on Mus musculus [20] and -0.2 °C in the assay with Mus musculus [21].
As to `CCCCCc1cc(O)c2c(c1)OC(C)(C)[C@@H]1CCC(C)=C[C@@H]21` [DRONABINOL], the Average score is 3 in the assay on Canis familiaris [1], 4 with Canis familiaris [22] and 0 with Canis familiaris [5]. Further, the Change with Canis familiaris [2] is listed as -39%; with Canis familiaris [3], -46%. For the same compound, the Activity in the assay on Mus musculus [23] is on record as 6; with Mus musculus [24] it was 59; with Mus musculus [25], 20; in the assay with Mus musculus [26], 17. In addition, the Change in temparature with Mus musculus [27] was -4.2 °C; in the assay with Mus musculus [28] it was -2.6 °C; with Mus musculus [29], -3.6 °C; in the assay on Mus musculus [30], -3.8 °C.

Source of the values: ChEMBL document CHEMBL1121985, “3'-Hydroxy- and (+/-)-3',11-dihydroxy-delta 9-tetrahydrocannabinol: biologically active metabolites of delta 9-tetrahydrocannabinol” (1982).
